Source: ChEMBL document CHEMBL1201862, “PubChem BioAssay data set” (2004)
The source made the active and inactive calls.

Tests used:
[1] = inhibitors of firefly luciferase expression or activity, dose response, H4 neuroglioma cells, luminescence (AID 1990); assay type: functional, cell-based
[2] = Luminescence Cell-Based Dose Response HTS to Identify Inhibitors of 5'UTR Stem-Loop Driven Prion Protein mRNA Translation in H4 Neuroglioblastoma Cells. [Related pubchem assays: 1827 (Project Summary), 1813 (Primary HTS)]; assay type: functional
[3] = inhibitors of SNCA 5'UTR-driven reporter translation, confirmation, H4 neuroglioma cells, luminescence (AID 1988); assay type: functional, cell-based
[4] = target: Type-1 angiotensin II receptor (Homo sapiens, UniProt P30556); experiment: AT1 receptor agonists, dose response, selectivity assay for APJ receptor agonist project, cell-based, uHTS hits (AID 488865); assay type: functional;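 further: beta-arrestin recruitment to AT1 measured by enzyme fragment complementation luminescence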
Type-1 angiotensin II receptor, sequence (P30556 whole entry, the tested form may be a part): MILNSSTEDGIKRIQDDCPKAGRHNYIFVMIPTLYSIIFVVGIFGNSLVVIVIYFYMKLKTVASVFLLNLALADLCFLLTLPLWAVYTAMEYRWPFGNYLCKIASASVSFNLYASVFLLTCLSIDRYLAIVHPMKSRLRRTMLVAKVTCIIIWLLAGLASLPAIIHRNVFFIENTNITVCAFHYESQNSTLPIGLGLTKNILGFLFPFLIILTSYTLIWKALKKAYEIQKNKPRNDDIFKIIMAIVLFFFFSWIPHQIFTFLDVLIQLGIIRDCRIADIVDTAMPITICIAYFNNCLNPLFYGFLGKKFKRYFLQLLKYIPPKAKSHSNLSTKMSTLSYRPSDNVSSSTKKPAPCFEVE

[5] = target: T1, Tyrosine-protein phosphatase non-receptor type 7 (Homo sapiens, UniProt P35236); experiment: SAR analysis of chemical inhibitors of HePTP using a Fluorescent assay - Set 2. [Related pubchem assays (depositor defined):AID1059, AID1077, AID1661, AID2085, AID521]; assay type: functional
T1 sequence (P35236 whole entry): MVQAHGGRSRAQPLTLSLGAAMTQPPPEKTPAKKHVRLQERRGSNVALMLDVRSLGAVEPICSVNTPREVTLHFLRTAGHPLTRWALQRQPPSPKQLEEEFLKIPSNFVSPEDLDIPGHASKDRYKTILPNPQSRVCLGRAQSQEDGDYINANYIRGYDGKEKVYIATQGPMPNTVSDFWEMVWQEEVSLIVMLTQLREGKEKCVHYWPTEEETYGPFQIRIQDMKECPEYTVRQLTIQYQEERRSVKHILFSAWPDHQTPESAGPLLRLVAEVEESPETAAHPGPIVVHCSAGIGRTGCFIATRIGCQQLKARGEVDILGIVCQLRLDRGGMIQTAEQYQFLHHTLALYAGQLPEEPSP

[6] = target: Dual specificity protein phosphatase 3 (Homo sapiens, UniProt P51452); experiment: SAR VHR1 Fluorescent Assay for In Vitro dose response studies Set 2. [Related pubchem assays (depositor defined):AID1654, AID1661, AID1878]; assay type: functional
Dual specificity protein phosphatase 3, sequence (P51452 whole entry): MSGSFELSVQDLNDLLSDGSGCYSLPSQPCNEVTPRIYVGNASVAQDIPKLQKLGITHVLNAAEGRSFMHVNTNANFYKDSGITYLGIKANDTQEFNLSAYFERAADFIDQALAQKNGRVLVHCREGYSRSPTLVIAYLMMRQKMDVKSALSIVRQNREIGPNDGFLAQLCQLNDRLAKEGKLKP

[7] = target: Hexokinase (Trypanosoma brucei, UniProt Q38C41); experiment: Confirmation assay for inhibitors of Trypanosoma brucei hexokinase 1-Analogue-first series. [Related pubchem assays (depositor defined):AID1430, AID1632, AID2516, AID2560, AID2579, AID2600, AID449725, AID492951]; assay type: functional
Hexokinase, sequence (Q38C41 whole entry, the tested form may be a part): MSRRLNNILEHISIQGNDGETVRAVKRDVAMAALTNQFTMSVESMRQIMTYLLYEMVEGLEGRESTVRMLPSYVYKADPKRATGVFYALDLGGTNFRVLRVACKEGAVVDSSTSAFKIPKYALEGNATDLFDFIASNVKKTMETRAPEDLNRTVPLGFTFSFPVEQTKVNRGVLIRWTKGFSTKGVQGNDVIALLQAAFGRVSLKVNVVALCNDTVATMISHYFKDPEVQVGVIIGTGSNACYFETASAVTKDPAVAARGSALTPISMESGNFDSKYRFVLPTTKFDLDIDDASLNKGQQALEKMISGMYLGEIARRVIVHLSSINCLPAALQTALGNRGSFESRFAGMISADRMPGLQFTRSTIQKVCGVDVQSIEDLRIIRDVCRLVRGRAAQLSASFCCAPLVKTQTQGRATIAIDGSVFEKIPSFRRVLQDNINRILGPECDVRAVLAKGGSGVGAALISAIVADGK

[8] = target: 1-acylglycerol-3-phosphate O-acyltransferase ABHD5/Perilipin-5 (Homo sapiens, UniProt Q00G26+Q8WTS1); experiment: Luminescence-based biochemical high throughput dose response assay for inhibitors of the interaction of the lipase co-activator protein, abhydrolase domain containing 5 (ABHD5) with perilipin-5 (MLDP; PLIN5) (2K validation set). [Related pubchem assays (depositor defined):AID493035, AID493241]
1-acylglycerol-3-phosphate O-acyltransferase ABHD5/Perilipin-5, sequence (Q00G26 whole entry, the tested form may be a part): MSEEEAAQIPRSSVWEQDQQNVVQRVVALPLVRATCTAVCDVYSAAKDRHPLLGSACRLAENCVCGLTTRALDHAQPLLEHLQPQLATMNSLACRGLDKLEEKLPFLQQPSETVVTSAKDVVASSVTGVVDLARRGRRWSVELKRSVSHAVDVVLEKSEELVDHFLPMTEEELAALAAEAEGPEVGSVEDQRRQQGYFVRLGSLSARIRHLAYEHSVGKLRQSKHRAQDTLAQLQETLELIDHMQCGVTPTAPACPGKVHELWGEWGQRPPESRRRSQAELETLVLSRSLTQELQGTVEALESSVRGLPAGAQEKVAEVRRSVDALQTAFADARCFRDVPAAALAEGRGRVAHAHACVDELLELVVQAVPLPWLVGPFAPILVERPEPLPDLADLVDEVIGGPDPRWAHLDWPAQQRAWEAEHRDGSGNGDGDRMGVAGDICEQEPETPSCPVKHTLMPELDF
1-acylglycerol-3-phosphate O-acyltransferase ABHD5/Perilipin-5, sequence (Q8WTS1 whole entry, the tested form may be a part): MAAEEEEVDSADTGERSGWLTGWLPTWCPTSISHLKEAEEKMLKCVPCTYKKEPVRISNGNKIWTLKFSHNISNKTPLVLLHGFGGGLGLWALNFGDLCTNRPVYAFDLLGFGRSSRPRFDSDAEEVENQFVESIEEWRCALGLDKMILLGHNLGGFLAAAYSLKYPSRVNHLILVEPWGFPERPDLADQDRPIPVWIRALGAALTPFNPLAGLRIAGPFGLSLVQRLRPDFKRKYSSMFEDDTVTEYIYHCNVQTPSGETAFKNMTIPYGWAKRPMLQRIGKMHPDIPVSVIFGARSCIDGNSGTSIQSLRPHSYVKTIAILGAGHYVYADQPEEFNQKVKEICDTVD

[9] = target: Perilipin-1/ABHD5 (Homo sapiens, UniProt O60240+Q8WTS1); experiment: Luminescence-based biochemical high throughput dose response assay for inhibitors of the interaction of the lipase co-activator protein, abhydrolase domain containing 5 (ABHD5) with perilipin-1 (PLIN1) (2K validation set). [Related pubchem assays (depositor defined):AID493027, AID493057]
Perilipin-1/ABHD5, sequence (Q8WTS1 whole entry, the tested form may be a part): as above
Perilipin-1/ABHD5, sequence (O60240 whole entry, the tested form may be a part): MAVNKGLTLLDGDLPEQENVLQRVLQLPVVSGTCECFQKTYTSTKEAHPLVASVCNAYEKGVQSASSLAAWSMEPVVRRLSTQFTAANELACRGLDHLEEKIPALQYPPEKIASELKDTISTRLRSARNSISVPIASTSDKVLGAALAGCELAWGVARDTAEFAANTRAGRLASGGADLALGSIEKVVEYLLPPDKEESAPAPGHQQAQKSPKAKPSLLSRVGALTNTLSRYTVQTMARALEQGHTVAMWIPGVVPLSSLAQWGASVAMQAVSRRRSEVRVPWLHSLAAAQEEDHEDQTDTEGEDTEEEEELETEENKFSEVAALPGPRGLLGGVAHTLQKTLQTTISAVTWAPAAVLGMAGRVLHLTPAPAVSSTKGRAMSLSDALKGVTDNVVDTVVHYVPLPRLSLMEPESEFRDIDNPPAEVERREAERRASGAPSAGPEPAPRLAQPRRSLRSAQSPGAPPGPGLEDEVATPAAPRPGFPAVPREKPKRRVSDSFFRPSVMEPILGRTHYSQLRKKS

[10] = target: Glyceraldehyde-3-phosphate dehydrogenase (Homo sapiens, UniProt P04406)
Glyceraldehyde-3-phosphate dehydrogenase, sequence (P04406 whole entry): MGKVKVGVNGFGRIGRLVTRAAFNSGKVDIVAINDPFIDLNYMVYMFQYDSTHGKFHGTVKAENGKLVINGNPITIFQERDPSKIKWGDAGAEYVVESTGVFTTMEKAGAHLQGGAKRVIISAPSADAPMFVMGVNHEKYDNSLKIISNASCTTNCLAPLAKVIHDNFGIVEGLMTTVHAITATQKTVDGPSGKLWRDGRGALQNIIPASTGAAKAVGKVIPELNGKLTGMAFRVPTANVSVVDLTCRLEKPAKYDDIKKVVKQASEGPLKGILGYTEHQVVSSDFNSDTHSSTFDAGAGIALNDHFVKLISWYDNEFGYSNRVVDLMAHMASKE

[11] = target: Alkaline phosphatase, placental type (Homo sapiens, UniProt P05187); experiment: PLAP enzyme inhibitors, confirmation, biochemical, luminescence (AID 1512); assay type: functional
Alkaline phosphatase, placental type, sequence (P05187 whole entry): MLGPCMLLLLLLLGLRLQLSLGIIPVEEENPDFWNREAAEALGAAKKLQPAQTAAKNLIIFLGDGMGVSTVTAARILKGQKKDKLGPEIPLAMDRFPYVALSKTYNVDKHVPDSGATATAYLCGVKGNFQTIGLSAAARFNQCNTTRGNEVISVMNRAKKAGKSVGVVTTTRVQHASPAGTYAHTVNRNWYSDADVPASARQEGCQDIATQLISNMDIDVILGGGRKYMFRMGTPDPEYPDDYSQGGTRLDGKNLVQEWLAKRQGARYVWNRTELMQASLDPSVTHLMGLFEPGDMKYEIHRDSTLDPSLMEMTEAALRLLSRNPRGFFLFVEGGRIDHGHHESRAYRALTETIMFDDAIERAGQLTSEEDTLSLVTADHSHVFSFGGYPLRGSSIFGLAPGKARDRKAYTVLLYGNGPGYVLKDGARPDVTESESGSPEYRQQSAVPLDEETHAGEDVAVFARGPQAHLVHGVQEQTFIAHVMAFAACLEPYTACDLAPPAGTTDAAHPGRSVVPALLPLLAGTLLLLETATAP

[12] = target: T2, Alkaline phosphatase, tissue-nonspecific isozyme (Homo sapiens, UniProt P05186); experiment: human TNAP enzyme inhibitors, SAR follow-up, biochemical, luminescent, dose response (AID 1056)
T2 sequence (P05186 whole entry): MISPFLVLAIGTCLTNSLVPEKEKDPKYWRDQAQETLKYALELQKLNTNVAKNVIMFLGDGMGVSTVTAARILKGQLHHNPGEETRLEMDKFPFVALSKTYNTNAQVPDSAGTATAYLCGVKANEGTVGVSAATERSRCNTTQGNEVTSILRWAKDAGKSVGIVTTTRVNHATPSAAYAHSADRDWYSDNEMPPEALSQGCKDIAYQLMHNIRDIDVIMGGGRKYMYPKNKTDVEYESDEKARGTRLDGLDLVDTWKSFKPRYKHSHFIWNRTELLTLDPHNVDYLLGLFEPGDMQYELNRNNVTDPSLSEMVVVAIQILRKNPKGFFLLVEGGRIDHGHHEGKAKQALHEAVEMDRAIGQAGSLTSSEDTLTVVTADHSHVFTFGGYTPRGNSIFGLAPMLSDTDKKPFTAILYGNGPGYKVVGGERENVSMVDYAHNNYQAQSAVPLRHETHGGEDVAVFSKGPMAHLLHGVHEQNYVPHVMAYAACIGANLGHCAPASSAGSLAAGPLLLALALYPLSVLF

[13] = target: Mu-type opioid receptor (Homo sapiens, UniProt P35372); experiment: SAR Analysis of Antagonists of the MOR Receptor using an Image-Based Assay - Set 3. [Related pubchem assays (depositor defined):AID1777, AID1785, AID1786, AID1966, AID2133, AID2136, AID2284, AID2285, AID2420]; assay type: functional
Mu-type opioid receptor, sequence (P35372 whole entry): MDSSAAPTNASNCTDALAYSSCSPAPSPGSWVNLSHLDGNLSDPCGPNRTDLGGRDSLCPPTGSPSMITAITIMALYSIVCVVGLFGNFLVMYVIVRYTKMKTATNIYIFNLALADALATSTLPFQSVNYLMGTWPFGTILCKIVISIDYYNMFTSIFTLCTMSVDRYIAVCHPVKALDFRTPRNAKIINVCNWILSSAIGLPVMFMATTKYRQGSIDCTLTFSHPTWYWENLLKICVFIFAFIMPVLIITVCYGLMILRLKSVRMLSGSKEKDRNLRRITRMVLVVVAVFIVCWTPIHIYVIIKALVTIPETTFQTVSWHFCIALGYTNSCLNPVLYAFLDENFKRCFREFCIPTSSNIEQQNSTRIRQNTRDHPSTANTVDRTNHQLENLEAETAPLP

[14] = target: T3, Kappa-type opioid receptor (Homo sapiens, UniProt P41145); experiment: SAR analysis of small molecule antagonists of the kappa opioid receptor via a luminescent beta-arrestin assay - Set 6. [Related pubchem assays (depositor defined):AID1777, AID1778, AID1785, AID1786, AID1966, AID2133, AID2136, AID2285]; assay type: functional
T3 sequence (P41145 whole entry): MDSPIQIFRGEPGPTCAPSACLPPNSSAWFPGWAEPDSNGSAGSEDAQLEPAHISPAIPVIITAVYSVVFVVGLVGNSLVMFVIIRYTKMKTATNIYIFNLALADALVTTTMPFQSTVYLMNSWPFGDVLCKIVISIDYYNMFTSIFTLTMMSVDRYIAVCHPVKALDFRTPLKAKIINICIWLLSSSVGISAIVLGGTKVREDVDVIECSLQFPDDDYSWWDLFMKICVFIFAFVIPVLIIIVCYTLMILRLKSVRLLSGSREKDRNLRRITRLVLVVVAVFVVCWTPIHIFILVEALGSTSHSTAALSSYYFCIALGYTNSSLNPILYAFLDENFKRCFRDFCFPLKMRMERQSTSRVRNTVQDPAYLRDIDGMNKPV

[15] = target: T3, Kappa-type opioid receptor; experiment: SAR analysis of small molecule antagonists of the kappa opioid receptor via a luminescent beta-arrestin assay - Set 4. [Related pubchem assays (depositor defined):AID1777, AID1778, AID1785, AID1786, AID1966, AID2133, AID2136, AID2285]; assay type: functional
[16] = target: Delta-type opioid receptor (Homo sapiens, UniProt P41143); experiment: SAR Analysis of Antagonists of the DOR Receptor using an Image-Based Assay - Set 3. [Related pubchem assays (depositor defined):AID1777, AID1785]; assay type: functional;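 further: U2OS cells expressing DOR1 and beta-arrestin GFP stimulated with 100 nM SNC80; imaging of GFP-tagged beta-arrestin moving into spots after receptor activation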
Delta-type opioid receptor, sequence (P41143 whole entry): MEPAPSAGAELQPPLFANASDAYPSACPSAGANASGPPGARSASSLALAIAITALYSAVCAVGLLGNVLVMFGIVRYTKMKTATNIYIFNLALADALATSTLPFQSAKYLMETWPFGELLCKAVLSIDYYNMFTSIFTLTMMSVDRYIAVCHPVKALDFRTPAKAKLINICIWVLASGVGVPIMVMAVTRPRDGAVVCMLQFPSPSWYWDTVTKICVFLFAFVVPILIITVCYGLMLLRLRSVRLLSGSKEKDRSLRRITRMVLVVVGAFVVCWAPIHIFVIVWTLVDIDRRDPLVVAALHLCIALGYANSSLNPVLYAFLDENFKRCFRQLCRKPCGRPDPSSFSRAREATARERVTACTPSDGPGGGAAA

[17] = target: T3, Kappa-type opioid receptor; experiment: SAR analysis of Antagonists of the Kappa Opioid Receptor (KOR) using an Image-Based Assay - Set 4. [Related pubchem assays (depositor defined):AID1777, AID1785]; assay type: functional

SMILES: CCc1nnc(NC(=O)CSc2nc3cccnc3n2C2CCCCC2)s1
- EC50 [1]: 23.2 µM (active)
- EC50 [2]: > 120 µM (not active)
- EC50 [3]: 13.3 µM (active)
- EC50 [4]: > 100 µM (inactive)

SMILES: COc1ccc(OC)c(C(=S)NCc2cccc(F)c2)c1
- IC50 [5]: 64 µM (active)
- IC50 [6]: 65.2 µM (active)

SMILES: O=c1c(Br)csn1-c1ccc(Br)cc1
- IC50 [7]: 11.1 µM (active)

SMILES: COc1cccc(/C=C/C(=O)c2c(O)cc(C)oc2=O)c1O
- IC50 [8]: 9.96 µM (active)
- IC50 [9]: 6.79 µM (active)

SMILES: CCN(CC)C(=O)CSc1nnc(-c2ccccc2OC)[nH]1
- IC50 [10]: > 100 µM (not active)
- IC50 [11]: > 100 µM (inactive)
- IC50 [12]: 17.6 µM (active)

SMILES: CCCCc1ccc(S(=O)(=O)NCc2ccc(C(=O)NCCN(Cc3ccccc3)C(C)C)cc2)cc1
- IC50 [13]: > 32 µM (inactive)
- IC50 [14]: 4.73 µM (active)
- IC50 [15]: 3.01 µM (active)
- IC50 [16]: > 32 µM (inactive)
- IC50 [17]: 0.168 µM (active)
